The results in this text go back to patent US12195482B1 (Arcus Biosciences, Inc., priority 2022, dated 2025).

For one experiment, the target named is T1, p-AXL (Homo sapiens, UniProt P30530).
T1 construct: expressed in transfected cells; host or cells: HEK293T
T1 sequence (P30530 26-894): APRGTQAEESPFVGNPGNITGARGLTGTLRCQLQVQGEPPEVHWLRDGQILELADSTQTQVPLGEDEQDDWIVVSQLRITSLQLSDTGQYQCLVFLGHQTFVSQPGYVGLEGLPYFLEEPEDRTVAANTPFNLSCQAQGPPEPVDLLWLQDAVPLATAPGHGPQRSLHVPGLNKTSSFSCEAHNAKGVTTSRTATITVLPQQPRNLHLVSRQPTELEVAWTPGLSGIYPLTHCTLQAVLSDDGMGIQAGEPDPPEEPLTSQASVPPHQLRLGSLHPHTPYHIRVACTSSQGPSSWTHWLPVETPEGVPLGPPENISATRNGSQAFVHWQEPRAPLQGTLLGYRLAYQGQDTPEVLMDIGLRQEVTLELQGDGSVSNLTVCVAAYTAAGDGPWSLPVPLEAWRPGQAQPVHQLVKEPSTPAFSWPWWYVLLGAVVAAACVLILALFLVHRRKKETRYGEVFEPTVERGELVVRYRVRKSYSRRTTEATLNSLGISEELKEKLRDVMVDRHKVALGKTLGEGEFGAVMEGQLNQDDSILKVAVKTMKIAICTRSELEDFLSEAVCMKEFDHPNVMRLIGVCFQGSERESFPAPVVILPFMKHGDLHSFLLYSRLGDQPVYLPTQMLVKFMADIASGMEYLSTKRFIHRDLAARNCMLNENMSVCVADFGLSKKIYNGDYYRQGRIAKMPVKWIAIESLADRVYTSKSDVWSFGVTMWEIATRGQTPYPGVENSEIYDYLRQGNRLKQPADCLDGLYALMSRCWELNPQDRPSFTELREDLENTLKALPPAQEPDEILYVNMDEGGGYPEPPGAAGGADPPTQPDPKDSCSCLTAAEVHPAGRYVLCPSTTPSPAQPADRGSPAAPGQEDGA
The experiment can be described thus: Axl phosphorylation inhibition ELISA in HEK293T cells transfected with NanoLuc-tagged AXL. It counts as cell-based. To be noted: 1 h compound incubation, media (OptiMEM). The protocol: [formula] Measurement of Axl Phosphorylation Inhibition
The dose-response assays were performed in S-Bio PrimeSurface® 3D culture: Ultra-low Attachment Plates: 384 well, U bottom (#MS-9384UZ) containing 400 nL of 22 serial 2-fold compound dilutions using Bravo and Echo. ELISA assay was performed on Pierce™ streptavidin coated high capacity 384-well white plates (Thermofisher Cat #15505). The plates were coated overnight at 4° C. with 50 μl/well of biotinlyated phospho-tyrosine mouse mAb (Cell Signaling Technology, 9417s).
HEK293T cells were grown in DMEM containing 10% FBS, 1% Pen/Strep, 1% G-Max. A day before the assay, cells were transiently transfected with 6.8 μg of NanoLuc-tagged AXL plasmid DNA and 8 μg of carrier DNA using FuGENE® HD Transfection Reagent (Promega) according to manufacturer's instructions. On the day of the assay, transfected cells were harvested and resuspended in OptiMEM. 70,000 cells/well were added to the compounds containing assay plates. After a gentle mix and a short spin, the plates were incubated at 37° C. After 1 h, the cells were lysed followed by a brief centrifugation and 30 min of shaking at 300 rpm. Meanwhile, the antibody coated plates were brought to room temperature and then were washed ten times in PBS with 0.05% Tween 20 (ELISA-wash buffer). 50 μl/well of cell lysate was transferred to the ELISA plates and shaken for 2 hours. After washing again with the ELISA wash buffer, the samples were diluted with 25 μl of PBS. The captured NanoLuc tagged p-AXL was detected using Nano-Glo® Luciferase Assay System (Promega) and manufacturer's instruction. The luminescence signal was measured using Envision plate reader. IC50 values were determined by fitting the data to a standard 4-parameter logistic equation.

The next experiment addresses T2, Axl (Homo sapiens, UniProt P30530).
T2 sequence (P30530 26-894): T1 sequence (P30530 26-894)
As to the kind of experiment: Biochemical potency, HTRF KinEASE-TK kinase assay. The following applies: 5 nM AXL, 700 μM ATP. Details: purchased Invitrogen. How it is done:
Measurement of Biochemical Compound Potency of Axl Inhibitors
Purified recombinant human AXL, TYRO3 and MER proteins were purchased from Invitrogen™. 10 nM AXL, 2 nM TYRO3 or MER were incubated with varying concentrations of compounds in 50 mM HEPES, pH 7.4, 10 mM MgCl2, 0.01% BSA, 1 mM DTT and 2% DMSO in a total volume of 20 μl in a 384-well microplate (Corning™ #3640) at RT for 1 h. The AXL, TYRO3 and MER enzymatic reaction was initiated by transferring 10 μl of enzyme and compound mixture into 10 μl of 1.6 μM TK Substrate-biotin (HTRF® KinEASE-TK kit, Cisbio) and 1400 μM ATP pre-incubated in 50 mM HEPES, pH 7.4, 10 mM MgCl2, 0.01% BSA, 1 mM DTT in a 384-well microplate (Corning™ #3640) at RT, giving the final reaction conditions: 5 nM AXL, 1 nM TYRO3 or MER, 800 nM TK Substrate-biotin and 700 μM ATP in 50 mM HEPES, pH 7.4, 10 mM MgCl2, 0.01% BSA, 1 mM DTT and 1% DMSO with varying concentrations of compounds. Following 2 h incubation at RT, the AXL, TYRO3 and MER enzymatic reaction was stopped by transfer of 10 μl of reaction into 10 μl of detection mix (400 nM Streptavidin-XL665, 200-fold dilution TK Antibody-Cryptate and detection buffer, HTRF® KinEASE-TK kit, Cisbio) in a white 384-well microplate (Perkin Elmer, OptiPlate 384). After 1 h incubation at RT, the plate was put into a plate reader (Evision) to read at 665/620 nm (acceptor/donor) for HTRF. The value of the DMSO blank (MIN inhibition=100% activity) was used as a negative control. The positive control was established by adding 5 μl of enzyme and DMSO mixture into 10 μl of detection mix followed by addition of 5 μl of TK Substrate-biotin and ATP mixture (MAX inhibition=0% activity). To calculate the percent activity, Equation 1 was used. Ratio665/620 is the value at a given compound concentration: […]

With `Cc1ccc(C(F)(F)F)nc1-c1ccc(-c2c[nH]c3ncc(-c4ccc5c(c4)CC[C@@H](N4C6COC[C@H]4C6)CC5)cc23)cc1` [Example 146, (1R)-6-[(7S)-2-(3-{4-[3-Methyl-6-(trifluoromethyl)pyridin-2-yl]phenyl}-1H-pyrrolo[2,3-b]pyridin-5-yl)-6,7,8,9-tetrahydro-5H-benzo[7]annulen-7-yl]-3-oxa-6-azabicyclo[3.1.1]heptane], the results for the half-maximal inhibitory concentration (IC50) against p-AXL and against Axl were 100 to 1000 nM and less than 100 nM, respectively.
In the same order, the values of `Cc1ccc(C(C)(C)O)nc1-c1ccc(-c2c[nH]c3ncc(-c4ccc5c(c4)CC[C@@H](N4C6COCC4C6)CC5)cc23)cc1` [Example 8, 2-[5-Methyl-6-(4-{5-[(7S)-7-{3-oxa-6-azabicyclo[3.1.1]heptan-6-yl}-6,7,8,9-tetrahydro-5H-benzo[7]annulen-2-yl]-1H-pyrrolo[2,3-b]pyridin-3-yl}phenyl)pyridin-2-yl]propan-2-ol] are 100 to 1000 nM and less than 100 nM.
Regarding `Cc1cccnc1-c1ccc(-c2n[nH]c3ncc(-c4ccc5c(c4)CC(N4CCCC4)CC5)cc23)cc1` (centres unmarked) [Example 67, 3-Methyl-2-(4-{5-[7-(pyrrolidin-1-yl)-5,6,7,8-tetrahydronaphthalen-2-yl]-1H-pyrazolo[3,4-b]pyridin-3-yl}phenyl)pyridine], the IC50 against p-AXL is 100 to 1000 nM; against Axl it was less than 100 nM.
`CN1CCOc2ccnc(-c3ccc(-c4n[nH]c5ncc(-c6ccc7c(c6)CC[C@@H](N6C8COCC6C8)CC7)cc45)cc3)c21` [Example 151, 6-[(7S)-2-[3-(4-{4-Methyl-2H,3H,4H-pyrido[4,3-b][1,4]oxazin-5-yl}phenyl)-1H-pyrazolo[3,4-b]pyridin-5-yl]-6,7,8,9-tetrahydro-5H-benzo[7]annulen-7-yl]-3-oxa-6-azabicyclo[3.1.1]heptane]: the IC50 on p-AXL and against Axl was less than 100 nM in each case.
In the case of `Cc1cnc(-c2ccc(-c3n[nH]c4ncc(-c5ccc6c(c5)CC[C@@](C)(N5CCC[C@H]5C)CC6)cc34)nc2)c(C)n1` [Example 60, 3,5-Dimethyl-2-(6-{5-[(7S)-7-methyl-7-[(2R)-2-methylpyrrolidin-1-yl]-6,7,8,9-tetrahydro-5H-benzo[7]annulen-2-yl]-1H-pyrazolo[3,4-b]pyridin-3-yl}pyridin-3-yl)pyrazine], the IC50 against p-AXL is 100 to 1000 nM; against Axl, less than 100 nM.
In the same order, the values of `Cc1cnc(-c2ccc(-c3n[nH]c4ncc(-c5ccc6c(c5)CC[C@@](C)(N5CCC[C@H]5C)CC6)cc34)cc2)c(C)n1` [Example 188, 3,5-Dimethyl-2-(4-{5-[(7S)-7-methyl-7-[(2R)-2-methylpyrrolidin-1-yl]-6,7,8,9-tetrahydro-5H-benzo[7]annulen-2-yl]-1H-pyrazolo[3,4-b]pyridin-3-yl}phenyl)pyrazine] are less than 100 nM and less than 100 nM.
In the same order, the values of `Cc1cnc(C)c(-c2ccc(-c3n[nH]c4ncc(-c5ccc6c(c5)CC[C@@](C)(N5CCC[C@H]5C)CC6)cc34)nc2)n1` [Example 61, 2,5-Dimethyl-3-(6-{5-[(7S)-7-methyl-7-[(2R)-2-methylpyrrolidin-1-yl]-6,7,8,9-tetrahydro-5H-benzo[7]annulen-2-yl]-1H-pyrazolo[3,4-b]pyridin-3-yl}pyridin-3-yl)pyrazine] are less than 100 nM and less than 100 nM.
In the same order, the values of `Cc1cnc(-c2ccc(-c3n[nH]c4ncc(-c5ccc6c(c5)CC[C@@H](N5CCCC5)CC6)cc34)cc2)c(C)n1` [Example 189, 3,5-Dimethyl-2-(4-{5-[(7S)-7-(pyrrolidin-1-yl)-6,7,8,9-tetrahydro-5H-benzo[7]annulen-2-yl]-1H-pyrazolo[3,4-b]pyridin-3-yl}phenyl)pyrazine] are 100 to 1000 nM and less than 100 nM.
Turning to `Cc1ccc(C)c(-c2ccc(-c3c[nH]c4ncc(-c5ccc6c(c5)CC[C@@H](N5CCCC5)CC6)cc34)cc2)n1` [Example 148, 3,6-Dimethyl-2-(4-{5-[(7S)-7-(pyrrolidin-1-yl)-6,7,8,9-tetrahydro-5H-benzo[7]annulen-2-yl]-1H-pyrrolo[2,3-b]pyridin-3-yl}phenyl)pyridine], the IC50 at p-AXL is 100 to 1000 nM; at Axl it was less than 100 nM.
The matching figures for `Cc1ncccc1-c1ccc(-c2c[nH]c3ncc(-c4ccc5c(c4)CC[C@@H](N4C6COCC4C6)CC5)cc23)cc1` [Example 74, 6-[(7S)-2-{3-[4-(2-Methylpyridin-3-yl)phenyl]-1H-pyrrolo[2,3-b]pyridin-5-yl}-6,7,8,9-tetrahydro-5H-benzo[7]annulen-7-yl]-3-oxa-6-azabicyclo[3.1.1]heptane]: 100 to 1000 nM and less than 100 nM.
Take `Cc1ccc(C)c(-c2ccc(-c3c[nH]c4ncc(-c5ccc6c(c5)CC[C@@H](N5C7COC[C@H]5C7)CC6)cc34)nc2)n1` [Example 142, 3,6-Dimethyl-6′-{5-[(7S)-7-[(1R)-3-oxa-6-azabicyclo[3.1.1]heptan-6-yl]-6,7,8,9-tetrahydro-5H-benzo[7]annulen-2-yl]-1H-pyrrolo[2,3-b]pyridin-3-yl}-2,3′-bipyridine]: the half-maximal inhibitory concentration (IC50) on p-AXL and at Axl was less than 100 nM each time.
Consider `Cc1ccc(C(N)=O)nc1-c1ccc(-c2c[nH]c3ncc(-c4ccc5c(c4)CC[C@@H](N4C6COCC4C6)CC5)cc23)cc1` [Example 76, 5-Methyl-6-(4-{5-[(7S)-7-{3-oxa-6-azabicyclo[3.1.1]heptan-6-yl}-6,7,8,9-tetrahydro-5H-benzo[7]annulen-2-yl]-1H-pyrrolo[2,3-b]pyridin-3-yl}phenyl)pyridine-2-carboxamide], for which the IC50 at p-AXL and on Axl was less than 100 nM throughout.
Consider `Cc1cnc(C)c(-c2ccc(-c3c[nH]c4ncc(-c5ccc6c(c5)CC[C@@](C)(N5CCC[C@H]5C)CC6)cc34)nc2)n1` [Example 68, 2,5-Dimethyl-3-(6-{5-[(7S)-7-methyl-7-[(2R)-2-methylpyrrolidin-1-yl]-6,7,8,9-tetrahydro-5H-benzo[7]annulen-2-yl]-1H-pyrrolo[2,3-b]pyridin-3-yl}pyridin-3-yl)pyrazine], for which the IC50 at p-AXL and against Axl was less than 100 nM each time.
